Measurements reported in US11162129B2, “Photoprotective mixtures as imaging reagents in sequencing-by-synthesis” (IsoPlexis Corporation, priority 2016, dated 2021).

Source text: Components in various photoprotective imaging mixtures as described herein have been tested for solubility and stability against precipitation and discoloration in imaging solution formulation using […] as the base buffer.

optimal concentration window in imaging solution formulation	SMILES
5 to 50 mM	C[N+](C)(C)CC(O)CC(=O)[O-] (stereo not drawn) [Carnitine, carnitine]
10 to 20 mM	CCOC(=O)c1ccc(O)c(O)c1 [3,4-Dihydroxybenzoic Acid Ethyl Ester, 3,4-dihydroxybenzoic acid ethyl ester]
5 to 15 mM	Cc1c(C)c2c(c(C)c1O)CCC(C)(C(=O)O)O2 (stereo not drawn) [Trolox, 6-hydroxy-2,5,7,8-tetramethylchromane-2-carboxylic acid]
